Measured values as given in ChEMBL document CHEMBL5038645, “Discovery of Mycobacterium tuberculosis Rv3364c-Derived Small Molecules as Potential Therapeutic Agents to Target SNX9 for Sepsis” (J Med Chem, 2022).
Activity calls are given as the source filed them. The rule behind the calls is not given here.

Assays:
[1] = system: Staphylococcus aureus; assay: Antibacterial activity against Staphylococcus aureus ATCC 6538 assessed as bacterial clearance incubated for 6 to 24 hrs by microbroth dilution method; assay type: functional; conditions: time 6-24 hrs
[2] = system: Mus musculus; assay: Protection against CLP-induced systemic sepsis SNX9+/+ mouse model assessed as reduction in spleen damage at 10 microg/kg, ip by H and E staining based analysis; assay type: functional, organism-based; conditions: dose 10.0 µg/kg
[3] = system: THP-1; assay: Inhibition of SNX9- p47phox protein-protein interaction in LPS-induced early endosome of human THP-1cells at 10 uM preincubated for 1 hrs followed by LPS stimulation for 30 mins; assay type: cell-based
[4] = system: Mus musculus; assay: Protection against CLP-induced systemic sepsis SNX9+/+ mouse model assessed as reduction in serum IL-1beta at 10 microg/kg, ip; assay type: functional, organism-based; conditions: dose 10.0 µg/kg
[5] = AUC (0 to last) in C57BL/6 mouse at 1 mg/kg, ip incubation up to 6 hrs by LC-MS/MS analysis; assay type: ADME, organism-based; parameters: route intraperitoneal, dose 1 mg/kg, time <=6; conditions: in vivo
[6] = system: Mus musculus; assay: Protection against CLP-induced systemic sepsis SNX9+/+ mouse model assessed as reduction in serum IL-6 at 10 microg/kg, ip; assay type: functional, organism-based; conditions: dose 10.0 µg/kg
[7] = system: BMDM; assay: Antiinflammatory activity in LPS-induced […] cells assessed as reduction in TNF-alpha production preincubated for 1 hr followed by LPS stimulation and measured after 30 mins by ELISA; assay type: functional, cell-based; conditions: dose 1-10000 nM
[8] = system: Mus musculus; assay: Protection against CLP-induced systemic sepsis SNX9+/+ mouse model assessed as reduction in serum IL-10 at 10 microg/kg, ip; assay type: functional, organism-based; conditions: dose 10.0 µg/kg
[9] = Stability in human plasma assessed as parent compound remaining at 10 uM incubation upto 120 mins by LC-MS/MS analysis relative to control; assay type: ADME, cell-free; conditions: read-out: Stability
[10] = system: Mus musculus; assay: Protection against CLP-induced systemic sepsis SNX9+/+ mouse model assessed as reduction in serum TNF-alpha at 10 microg/kg, ip; assay type: functional, organism-based; conditions: dose 10.0 µg/kg
[11] = system: Mus musculus; assay: Protection against CLP-induced systemic sepsis SNX9+/+ mouse model assessed as reduction in serum IL-12p40 at 10 microg/kg, ip; assay type: functional, organism-based; conditions: dose 10.0 µg/kg
[12] = system: THP-1; assay: Inhibition of SNX9- p47phox protein-protein interaction in human THP-1 at 10 uM preincubated for 1 hrs followed by LPS stimulation for 30 mins; assay type: cell-based
[13] = Cmax in C57BL/6 mouse at 1 mg/kg, ip incubation up to 6 hrs by LC-MS/MS analysis; assay type: ADME, organism-based; parameters: route intraperitoneal, dose 1 mg/kg, time <=6; conditions: in vivo
[14] = system: Mus musculus; assay: Protection against CLP-induced ip dosed systemic sepsis SNX9+/+ mouse model; assay type: functional, organism-based; conditions: dose 1.0 µg/kg
[15] = system: Mus musculus; assay: In vivo inhibition of SNX9-p47phox protein-protein interaction in CLP-induced systemic sepsis mouse model assessed as reduction ROS in splenocytes at 10 microg/kg, ip; assay type: functional, organism-based; conditions: dose 10.0 µg/kg
[16] = system: BMDM; assay: Inhibition of SNX9- p47phox protein-protein interaction in mouse BMDM at 10 uM preincubated for 1 hrs followed by LPS stimulation for 30 mins; assay type: cell-based; conditions: time 1.5 hrs
[17] = system: Mus musculus; assay: In vivo inhibition of SNX9-p47phox protein-protein interaction in CLP-induced systemic sepsis mouse model at 10 microg/kg, ip; assay type: functional, organism-based; conditions: dose 10.0 µg/kg
[18] = system: BMDM; assay: Inhibition of SNX9- p47phox protein-protein interaction in LPS-induced early endosome of mouse BMDM cells at 10 uM preincubated for 1 hrs followed by LPS stimulation for 30 mins; assay type: cell-based
[19] = system: Pseudomonas aeruginosa; assay: Antibacterial activity against Pseudomonas aeruginosa ATCC 10145 assessed as bacterial clearance incubated for 6 to 24 hrs by microbroth dilution method; assay type: functional; conditions: time 6-24 hrs
[20] = system: Mus musculus; assay: Protection against CLP-induced systemic sepsis SNX9+/+ mouse model assessed as reduction in liver damage at 10 microg/kg, ip by H and E staining based analysis; assay type: functional, organism-based; conditions: dose 10.0 µg/kg
[21] = Antiinflammatory activity in […] cells assessed as reduction in LPS-induced TNF-alpha release at 10 uM pre incubated for 1 hr followed by LPS stimulation and measured after 30 mins by ELISA; assay type: functional
[22] = system: Mus musculus; assay: Protection against CLP-induced systemic sepsis SNX9+/+ mouse model assessed as reduction in infiltration of immune cells at 10 microg/kg, ip by H & E staining based analysis; assay type: functional, organism-based; conditions: dose 10.0 µg/kg
[23] = system: THP-1; assay: Antiinflammatory activity in LPS-induced human THP-1 cells assessed as reduction in TNF-alpha production preincubated for 1 hr followed by LPS stimulation and measured after 30 mins by ELISA; assay type: functional, cell-based; conditions: dose 1-10000 nM
[24] = system: Escherichia coli; assay: Antibacterial activity against Escherichia coli ATCC 12701 assessed as bacterial clearance incubated for 6 to 24 hrs by microbroth dilution method; assay type: functional; conditions: time 6-24 hrs
[25] = system: THP-1; assay: Effect on SNX9 expression in human THP-1 cells at 1 to 5000 nM measured after 24 to 48 hrs; assay type: functional, cell-based; conditions: dose 1-5000 nM, time 24-48 hrs
[26] = system: Mus musculus; assay: Protection against CLP-induced systemic sepsis SNX9-/- mouse model assessed as effect on mouse survival at 100 to 1000 microg/kg, ip; assay type: functional, organism-based; conditions: dose 100-1000 µg/kg
[27] = Stability in human liver microsomes assessed as parent compound remaining at 10 uM preincubated for 5 mins followed by NADPH addition measured after 30 mins by LC-MS/MS analysis relative to control; assay type: ADME, Microsome; conditions: time 35 min, read-out: Stability
[28] = system: Mus musculus; assay: Protection against CLP-induced systemic sepsis SNX9+/+ mouse model assessed as mortality at 100 to 1000 microg/kg, ip; assay type: functional; conditions: dose 100-1000 µg/kg; at 100 to 1000 µg/kg
[29] = Drug uptake in CLP-induced systemic sepsis mouse model in lung macrophages at 10 microg/kg, ip; assay type: ADME, tissue-based; conditions: in vivo, 0.01 mg/kg, dose 10 µg/kg
[30] = system: Mus musculus; assay: Protection against CLP-induced systemic sepsis SNX9+/+ mouse model assessed as reduction in serum IL-18 at 10 microg/kg, ip; assay type: functional, organism-based; conditions: dose 10.0 µg/kg
[31] = Antiinflammatory activity in […] cells assessed as reduction in LPS-induced IL-6 release at 10 uM pre incubated for 1 hr followed by LPS stimulation and measured after 30 mins by ELISA; assay type: functional
[32] = system: BMDM; assay: Effect on SNX9 expression in mouse BMDM cells at 1 to 5000 nM measured after 24 to 48 hrs; assay type: functional, cell-based; conditions: dose 1-5000 nM, time 24-48 hrs
[33] = Antiinflammatory activity in […] cells assessed as reduction in LPS-induced NOX release at 10 uM pre incubated for 1 hr followed by LPS stimulation and measured after 30 mins by ELISA; assay type: functional
[34] = Drug uptake in CLP-induced systemic sepsis mouse model in liver macrophages at 10 microg/kg, ip; assay type: ADME, tissue-based; conditions: in vivo, 0.01 mg/kg, dose 10 µg/kg
[35] = Half life in C57BL/6 mouse at 1 mg/kg, ip incubation up to 6 hrs by LC-MS/MS analysis; assay type: ADME, organism-based; conditions: in vivo
[36] = Tmax in C57BL/6 mouse at 1 mg/kg, ip incubation up to 6 hrs by LC-MS/MS analysis; assay type: ADME, organism-based; conditions: in vivo
[37] = system: Mus musculus; assay: Protection against CLP-induced systemic sepsis SNX9+/+ mouse model assessed as reduction in lung damage at 10 microg/kg, ip by H and E staining based analysis; assay type: functional, organism-based; conditions: dose 10.0 µg/kg

For CC(C)(C)c1ccc(-c2nc(NCCOCCOCCN)nc(NCC3CCCO3)n2)cc1.Cl (configuration not stated), the MIC80 [1] was 4 µg/mL, the Activity [2] was “Active” and the inhibition [3] was “Active”. The Activity [4] was “Active”, the AUC(0-t) at 6 h [5] was 209 ng·h/mL and the Activity [6] was “Active”. For the same compound, the Activity [7] was “Dose-Dependent Effect”, the Activity [8] was “Active” and the remaining at 2 h, 10 µM [9] was 93%. For the same compound, the Activity [10] was “Active”, the Activity [11] was “Active” and the inhibition [12] was “Active”. For the same compound, the Cmax [13] was 136 ng/mL, the Activity [14] was “Dose-Dependent Effect” and the inhibition [15] was “Active”. The inhibition [16] was “Active”, the inhibition [17] was “Active” and the inhibition [18] was “Active”. The MIC80 [19] was 1.98 µg/mL, the Activity [20] was “Active” and the inhibition at 10 µM [21] was 60.8%. The Activity [22] was “Active”, the Activity [23] was “Dose-Dependent Effect” and the MIC80 [24] was 1.98 µg/mL. The Activity [25] was “inactive”, the Activity [26] was “inactive” and the remaining at 0.5 h, 10 µM [27] was greater than 100%. The Activity [28] was 70%, the Drug uptake [29] was “Active” and the Activity [30] was “Active”. For the same compound, the inhibition at 10 µM [31] was 66.7%, the Activity [32] was “inactive” and the inhibition at 10 µM [33] was 57%. The Drug uptake [34] was “Active”, the half-life [35] was 63.6 min and the Tmax [36] was 10.2 min. The Activity [37] was “Active”.
